US20130034509A1, “COSMETIC TREATMENT METHOD INVOLVING A COMPOUND CAPABLE OF CONDENSING IN SITU” (L'OREAL, priority 2009, published 2013)

Legend:
[1] = Insolubility of the deposit in water in the Petri dish (Example 3); details: general statement in the description
[2] = dispersion contacted on a film of APTES

Compound | water solubility of the material resulting from condensation [1] | flocculation of the dispersion [2]
CCO[Si](CCCN)(OCC)OCC [APTES, γ-aminopropyl triethoxysilane] | high water solubility | –
Zinc Pyrithione | – | almost immediate flocculation
